One experiment concerns TMD-8 cells. As to the kind of experiment: Cell proliferation assay (CellTiter-Glo), TMD-8 cells. In kind it is cell-based. Conditions: Homo sapiens, TMD8, 120 h, 5-day treatment, read-out: TMD8 cell growth (GI50 μM). As for the experimental part:
Cell proliferation assay: TMD-8 and SU-DHL-1 cells were maintained at 37° C. in a humidified atmosphere with 5% CO2 in the recommended medium and serum concentrations. For cell proliferation assay, cells were seeded in 96-well pates at a density of 5,000 to 10,000 cells per well and cultured overnight at 37° C. in recommended medium supplemented with 5-10% FBS. On the next day, the test articles at various concentrations or vehicle control (0.5% DMSO) were added into cell culture. After 5-day treatment, the growth of cells was assayed by the CellTiter-Glo® Luminestceaent Cell Viability Assay (Promega). IC50 values were calculated using GraphPad Prism by plotting the logarithm of the concentration versus percent inhibition of cell growth as compared with the vehicle control.

For the next experiment, the target named is T1, Btk (Homo sapiens, UniProt Q06187).
T1 construct: purchased Promega (Madison, Wis.)
T1 sequence (Q06187 whole entry): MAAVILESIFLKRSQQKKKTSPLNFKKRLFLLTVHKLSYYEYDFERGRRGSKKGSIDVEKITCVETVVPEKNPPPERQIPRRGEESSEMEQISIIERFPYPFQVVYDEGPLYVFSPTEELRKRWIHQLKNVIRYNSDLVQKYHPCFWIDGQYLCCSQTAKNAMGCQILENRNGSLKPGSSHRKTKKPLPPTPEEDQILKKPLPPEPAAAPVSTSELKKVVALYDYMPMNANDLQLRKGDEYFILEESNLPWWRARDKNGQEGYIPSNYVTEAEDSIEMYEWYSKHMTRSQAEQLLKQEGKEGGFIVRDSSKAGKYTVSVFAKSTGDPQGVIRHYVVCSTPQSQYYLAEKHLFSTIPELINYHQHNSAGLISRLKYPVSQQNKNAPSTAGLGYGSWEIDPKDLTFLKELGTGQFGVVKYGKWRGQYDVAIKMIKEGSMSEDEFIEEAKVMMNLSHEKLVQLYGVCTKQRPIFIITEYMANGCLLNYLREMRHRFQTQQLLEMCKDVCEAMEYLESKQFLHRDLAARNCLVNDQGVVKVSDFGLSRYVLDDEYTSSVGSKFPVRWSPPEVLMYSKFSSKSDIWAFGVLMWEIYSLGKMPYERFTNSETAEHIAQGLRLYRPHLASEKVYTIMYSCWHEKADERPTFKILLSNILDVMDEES
The experiment in a line: Btk kinase assay (ADP-Glo). In kind it is biochemical. Conditions: ADP-Glo Btk kinase assay kit; ATP 1.2 μM; 60 minutes at room temperature. As for the experimental part: Btk kinase assay—The Btk kinase assay was performed using a ADP-Glo Btk kinase assay kit purchased from Promega (Madison, Wis.). The assay was conducted according to the protocols provided in the assay kit. In brief, the enzyme reaction was carried out in the kinase reaction buffer containing Btk (2 ng/μl), ATP (1.2 μM), poly GT peptide (0.3 μM), DTT (40 nM), MnCl2 (1.4 mM), and 1 xkinase buffer (included in the kit) in the presence or absence of the tested articles at various concentrations in 384-well plate at room temperature (22±1° C.) for 60 minutes. The final reaction volume for each reaction was 10 μl. Then, 4 μl of ADP-Glo reagent (included in the kit) was added into the reaction and the plate was further incubated for another 40 minutes to terminate the reaction and deplete the remaining ATP. Finally, 10 μl of the kinase detection reagent was added into each reaction to simultaneously convert ADP to ATP and allow the newly synthesized ATP to be measured by a plate-reading luminometer (Victor X5 2030 multilabel reader, PerkinElmer). IC50 value was calculated using appropriate programs in GraphPad Prism by plotting the logarithm of the concentration versus percent inhibition as compared with a vehicle (DMSO) control.
A general note: In ADP-Glo the light output rises with the ADP produced.

Results on 24 compounds are retold here after patent US10144737B2 (ETERNITY BIOSCIENCE INC., priority 2014, dated 2018).

Molecules are shown by their SMILES.

As to `C=CC(=O)N1CC[C@@H](Nc2ncnc3[nH]c(C#Cc4ccc(OC)cc4)cc23)C1` [Example 53, (R)-1-(3-((6-((4-methoxyphenyl)ethynyl)-7H-pyrrolo[2,3-d]pyrimidin-4-yl)amino)pyrrolidin-1-yl)prop-2-en-1-one], the GI50 – broadly, the concentration at which growth is held to half of that of the control – with TMD-8 cells worked out at 0.006 µM. In addition, inhibition against Btk was half-maximal at 23 nM (IC50).
Take `CN(C)C/C=C/C(=O)N1CC[C@@H](Nc2ncnc3[nH]c(C#Cc4ccccc4)cc23)C1` [Example 54, (R,E)-4-(dimethylamino)-1-(3-((6-(phenylethynyl)-7H-pyrrolo[2,3-d]pyrimidin-4-yl)amino)pyrrolidin-1-yl)but-2-en-1-one]: the GI50 with TMD-8 cells is 0.121 µM. For the same compound, on Btk, half-maximal inhibition (IC50) was put at 3.5 nM.
For `C=CC(=O)N1CC[C@@H](Nc2ncnc3[nH]c(C#Cc4ccccc4Cl)cc23)C1` [Example 55, (R)-1-(3-((6-((2-chlorophenyl)ethynyl)-7H-pyrrolo[2,3-d]pyrimidin-4-yl)amino)pyrrolidin-1-yl)prop-2-en-1-one] the same measures were 0.195 µM and 174 nM.
In the same order, the values of `CN(C)C/C=C/C(=O)N1CC[C@@H](Nc2ncnc3[nH]c(C#Cc4ccccc4Cl)cc23)C1` [Example 56, (R,E)-1-(3-((6-((2-chlorophenyl)ethynyl)-7H-pyrrolo[2,3-d]pyrimidin-4-yl)amino)pyrrolidin-1-yl)-4-(dimethylamino)but-2-en-1-one] are 1 µM and 323 nM.
With `C=CC(=O)N1CC[C@@H](Nc2ncnc3[nH]c(C#Cc4cccc(Cl)c4)cc23)C1` [Example 57, (R)-1-(3-((6-((3-chlorophenyl)ethynyl)-7H-pyrrolo[2,3-d]pyrimidin-4-yl)amino)pyrrolidin-1-yl)prop-2-en-1-one], in the experiment with TMD-8 cells, the GI50 stood at 0.01 µM. Besides, half-maximal inhibition at Btk (IC50) required 24 nM.
In the same order, the values of `CN(C)C/C=C/C(=O)N1CC[C@@H](Nc2ncnc3[nH]c(C#Cc4cccc(Cl)c4)cc23)C1` [Example 58, (R,E)-1-(3-((6-((3-chlorophenyl)ethynyl)-7H-pyrrolo[2,3-d]pyrimidin-4-yl)amino)pyrrolidin-1-yl)-4-(dimethylamino)but-2-en-1-one] are 0.171 µM and 0.4 nM.
In the same order, the values of `C=CC(=O)N1CC[C@@H](Nc2ncnc3[nH]c(C#Cc4ccccc4OC)cc23)C1` [Example 59, (R)-1-(3-((6-((2-methoxyphenyl)ethynyl)-7H-pyrrolo[2,3-d]pyrimidin-4-yl)amino)pyrrolidin-1-yl)prop-2-en-1-one] are 1.97 µM and 742 nM.
As to `C=CC(=O)N1CC[C@@H](Nc2ncnc3[nH]c(C#Cc4cccc(OC)c4)cc23)C1` [Example 60, (R)-1-(3-((6-((3-methoxyphenyl)ethynyl)-7H-pyrrolo[2,3-d]pyrimidin-4-yl)amino)pyrrolidin-1-yl)prop-2-en-1-one], the GI50 in the experiment with TMD-8 cells came to 0.005 µM. The IC50 – broadly, the concentration at which inhibition is half-maximal – against Btk is 11 nM.
In the same order, the values of `C=CC(=O)N1CC[C@@H](Nc2ncnc3[nH]c(C#Cc4cccc(F)c4)cc23)C1` [Example 61, (R)-1-(3-((6-((3-fluorophenyl)ethynyl)-7H-pyrrolo[2,3-d]pyrimidin-4-yl)amino)pyrrolidin-1-yl)prop-2-en-1-one] are 0.022 µM and 121 nM.
For `C=CC(=O)N1CC[C@@H](Nc2ncnc3[nH]c(C#Cc4ccc(F)cc4)cc23)C1` [Example 62, (R)-1-(3-((6-((4-fluorophenyl)ethynyl)-7H-pyrrolo[2,3-d]pyrimidin-4-yl)amino)pyrrolidin-1-yl)prop-2-en-1-one] the same measures were 0.024 µM and 52 nM.
In the same order, the values of `C=CC(=O)N1CC[C@@H](Nc2ncnc3[nH]c(C#Cc4ccc(Cl)cc4)cc23)C1` [Example 63, (R)-1-(3-((6-((4-chlorophenyl)ethynyl)-7H-pyrrolo[2,3-d]pyrimidin-4-yl)amino)pyrrolidin-1-yl)prop-2-en-1-one] are 0.0027 µM and 4.8 nM.
Consider `C=CC(=O)N1CC[C@@H](Nc2ncnc3[nH]c(C#Cc4ccc(Cl)c(Cl)c4)cc23)C1` [Example 64, (R)-1-(3-((6-((3,4-dichlorophenyl)ethynyl)-7H-pyrrolo[2,3-d]pyrimidin-4-yl)amino)pyrrolidin-1-yl)prop-2-en-1-one], for which the GI50 with TMD-8 cells was found to be 0.005 µM. On Btk, this compound had an IC50 of 0.2 nM.
Take `C=CC(=O)N1CC[C@@H](Nc2ncnc3[nH]c(C#Cc4cccc(OC(F)(F)F)c4)cc23)C1` [Example 65, (R)-1-(3-((6-((3-trifluoromethoxyphenyl)ethynyl)-7H-pyrrolo[2,3-d]pyrimidin-4-yl)amino)pyrrolidin-1-yl)prop-2-en-1-one]: the GI50 in the experiment with TMD-8 cells amounted to 0.0027 µM. At Btk, this compound had a half-maximal inhibitory concentration (IC50) of 173 nM.
For `C=CC(=O)N1CC[C@@H](Nc2ncnc3[nH]c(C#Cc4ccc(OC(F)(F)F)cc4)cc23)C1` [Example 66, (R)-1-(3-((6-((4-trifluoromethoxyphenyl)ethynyl)-7H-pyrrolo[2,3-d]pyrimidin-4-yl)amino)pyrrolidin-1-yl)prop-2-en-1-one] the same measures were 0.0012 µM and 215 nM.
Turning to `C=CC(=O)N1CC[C@@H](Nc2ncnc3[nH]c(C#Cc4ccc(C(F)(F)F)cc4)cc23)C1` [Example 67, (R)-1-(3-((6-((4-trifluoromethylphenyl)ethynyl)-7H-pyrrolo[2,3-d]pyrimidin-4-yl)amino)pyrrolidin-1-yl)prop-2-en-1-one], the GI50 in the experiment with TMD-8 cells was determined as 0.004 µM. On Btk, the IC50 worked out at 272 nM.
As to `C=CC(=O)N1CC[C@@H](Nc2ncnc3[nH]c(C#Cc4cccc(C(F)(F)F)c4)cc23)C1` [Example 68, (R)-1-(3-((6-((3-trifluoromethylphenyl)ethynyl)-7H-pyrrolo[2,3-d]pyrimidin-4-yl)amino)pyrrolidin-1-yl)prop-2-en-1-one], in the experiment with TMD-8 cells, the GI50 came out at 0.003 µM. In addition, on Btk, the midpoint of inhibition, the IC50, lay at 187 nM.
On to `C=CC(=O)N1CC[C@@H](Nc2ncnc3[nH]c(C#Cc4cccc(C)c4)cc23)C1` [Example 69, (R)-1-(3-((6-((3-methylphenyl)ethynyl)-7H-pyrrolo[2,3-d]pyrimidin-4-yl)amino)pyrrolidin-1-yl)prop-2-en-1-one], for which the GI50 in the experiment with TMD-8 cells was determined as 0.007 µM. Also, the IC50 against Btk was determined as 182 nM.
For `C=CC(=O)N1CC[C@@H](Nc2ncnc3[nH]c(C#Cc4ccc(Cl)c(F)c4)cc23)C1` [Example 70, (R)-1-(3-((6-((3-fluoro-4-chlorophenyl)ethynyl)-7H-pyrrolo[2,3-d]pyrimidin-4-yl)amino)pyrrolidin-1-yl)prop-2-en-1-one] the same measures were 0.0013 µM and 7.2 nM.
For `C=CC(=O)N1CC[C@@H](Nc2ncnc3[nH]c(C#Cc4ccc5ccccc5c4)cc23)C1` [Example 71, (R)-1-(3-((6-(naphthalen-2-ylethynyl)-7H-pyrrolo[2,3-d]pyrimidin-4-yl)amino)pyrrolidin-1-yl)prop-2-en-1-one], the GI50 with TMD-8 cells is 0.001 µM. On Btk, the IC50 is 10 nM.
For `C=CC(=O)N1CC[C@@H](Nc2ncnc3[nH]c(C#Cc4ccc5c(c4)OCO5)cc23)C1` [Example 72, (R)-1-(3-((6-(benzo[d][1,3]dioxol-5-ylethynyl)-7H-pyrrolo[2,3-d]pyrimidin-4-yl)amino)pyrrolidin-1-yl)prop-2-en-1-one] the same measures were 0.0007 µM and 3.5 nM.
For `C=CC(=O)N1CC[C@@H](Nc2ncnc3[nH]c(C#Cc4ccc5sccc5c4)cc23)C1` [Example 73, (R)-1-(3-((6-(benzo[b]thiophen-5-ylethynyl)-7H-pyrrolo[2,3-d]pyrimidin-4-yl)amino)pyrrolidin-1-yl)prop-2-en-1-one], the GI50 in the experiment on TMD-8 cells is 0.001 µM. Also, at Btk, the IC50 is 0.1 nM.
For the compound `C=CC(=O)N1CC[C@@H](Nc2ncnc3[nH]c(C#Cc4ccc5occc5c4)cc23)C1` [Example 74, (R)-1-(3-((6-(benzofuran-5-ylethynyl)-7H-pyrrolo[2,3-d]pyrimidin-4-yl)amino)pyrrolidin-1-yl)prop-2-en-1-one], the GI50 with TMD-8 cells was 0.0012 µM. On Btk, this compound showed an IC50 of 0.03 nM.
In the same order, the values of `C=CC(=O)N1CC[C@@H](Nc2ncnc3[nH]c(C#Cc4cccs4)cc23)C1` [Example 75, (R)-1-(3-((6-(thiophen-2-ylethynyl)-7H-pyrrolo[2,3-d]pyrimidin-4-yl)amino)pyrrolidin-1-yl)prop-2-en-1-one] are 0.0049 µM and 30 nM.
In the same order, the values of `C=CC(=O)N1CC[C@@H](Nc2ncnc3[nH]c(C#Cc4ccsc4)cc23)C1` [Example 76, (R)-1-(3-((6-(thiophen-3-ylethynyl)-7H-pyrrolo[2,3-d]pyrimidin-4-yl)amino)pyrrolidin-1-yl)prop-2-en-1-one] are 0.0032 µM and 1 nM.
